Among the test systems are OVCAR-5; SNB-75; SW-620; UACC-62; HCT-15; SK-MEL-5; HCT-116; CAKI-1; NCI-H23; BT-549; T47D; DU-145; ACHN; OVCAR-8; MCF7; NCI-H226; NCI-H522; SNB-19; A549; HCC 2998.
What all share (assay): DTP human tumour cell line panel, 48 h

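48-hour exposure; five concentrations; linearly interpolated endpoints. At the GI50, growth is halved.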 Activity calls are given as the source filed them. Rule as the data show it: active = GI50 up to about 1.1 µM and inactive = higher. Peptide text beside a SMILES is read from it. * marks the point of attachment. Cbz = O=C(OCc1ccccc1)*; Boc = CC(C)(C)OC(=O)*; OBn = c1ccc(CO*)cc1

As usually defined, the GI50 is the concentration that inhibits growth by half. As to `COC(=O)C(CCCCNC(=O)OCc1ccccc1)NC(=O)C(CCC(=O)OCc1ccccc1)NC(=O)OC(C)(C)C` (stereo not given) (Boc-Glu(OBn)-Lys(Cbz)-OMe; configuration not given here), the GI50 was > 100 µM (inactive) with OVCAR-5; > 100 µM (inactive) with SNB-75; > 100 µM (inactive) in the assay on SW-620; 43 µM (inactive) in the assay on UACC-62; above 100 µM with HCT-15; > 100 µM (inactive) with SK-MEL-5. Besides, the GI50 was > 100 µM (inactive) in the assay with HCT-116; 86.7 µM (inactive) in the assay with CAKI-1; > 100 µM (inactive) with NCI-H23; > 100 µM (inactive) in the assay on BT-549; > 100 µM (inactive) in the assay on T47D; > 100 µM (inactive) in the assay with DU-145. The GI50 in the assay on ACHN was > 100 µM (inactive); in the assay on OVCAR-8 it was > 100 µM (inactive); with MCF7 it was > 100 µM (inactive); with NCI-H226, > 100 µM (inactive); with NCI-H522 it was 56.9 µM (inactive); with SNB-19, 40.2 µM (inactive). Also, the GI50 with A549 is > 100 µM (inactive).
Regarding `Cc1onc(-c2c(F)cccc2Cl)c1C(=O)N[C@@H]1C(=O)N2[C@@H]1SC(C)(C)[C@@H]2C(=O)O`, the GI50 was > 100 µM (inactive) in the assay with OVCAR-5; > 100 µM (inactive) in the assay with SNB-75; > 100 µM (inactive) with SW-620; > 100 µM (inactive) with UACC-62; above 100 µM in the assay with HCT-15; > 100 µM (inactive) in the assay on SK-MEL-5. For the same compound, the GI50 in the assay on HCT-116, in the assay on CAKI-1, in the assay with NCI-H23, in the assay on BT-549, in the assay on T47D and with DU-145 was > 100 µM (inactive) throughout. For the same compound, the GI50 in the assay on ACHN, in the assay with OVCAR-8, in the assay on MCF7, in the assay on NCI-H226, with NCI-H522 and with SNB-19 was > 100 µM (inactive) throughout. The GI50 in the assay on A549 was > 100 µM (inactive).
For `CC1(C)N=C(N)N=C(N)N1c1cccc(C(=O)Nc2ccc(S(=O)(=O)F)cc2)c1`, the GI50 was > 100 µM (inactive) in the assay on OVCAR-5; > 100 µM (inactive) in the assay with SNB-75; > 100 µM (inactive) with SW-620; > 100 µM (inactive) with UACC-62; above 100 µM with HCT-15; > 100 µM (inactive) with SK-MEL-5. For the same compound, the GI50 in the assay on HCT-116, in the assay on CAKI-1, in the assay with NCI-H23, in the assay on BT-549, with T47D and with DU-145 was > 100 µM (inactive) in each case. The GI50 in the assay on ACHN, in the assay on OVCAR-8, with MCF7, with NCI-H226, in the assay with NCI-H522 and with SNB-19 was > 100 µM (inactive) each time. In addition, the GI50 in the assay with A549 was > 100 µM (inactive).
As to `NC(=O)Cc1ncn(-c2ccccc2)n1`, the GI50 is > 100 µM (inactive) with OVCAR-5; > 100 µM (inactive) with SNB-75; > 100 µM (inactive) in the assay on SW-620; > 100 µM (inactive) in the assay with UACC-62; above 100 µM with HCT-15; > 100 µM (inactive) with SK-MEL-5. Moreover, the GI50 in the assay with HCT-116, in the assay on CAKI-1, with NCI-H23, in the assay with BT-549, in the assay on T47D and in the assay on DU-145 was > 100 µM (inactive) each time. In addition, the GI50 in the assay with ACHN, in the assay with OVCAR-8, in the assay with MCF7, in the assay on NCI-H226, in the assay with NCI-H522 and in the assay with SNB-19 was > 100 µM (inactive) each time. Moreover, the GI50 in the assay on A549 is > 100 µM (inactive).
Take `C(=N\CCCN1CCN(CCC/N=C/c2cccc3ccccc23)CC1)/c1cccc2ccccc12`: the GI50 with OVCAR-5 was > 100 µM (inactive); in the assay with SNB-75, 29.9 µM (inactive); with SW-620, 64.9 µM (inactive); in the assay on UACC-62 it was 84.7 µM (inactive); in the assay with HCT-15, 34.8 µM; in the assay on SK-MEL-5, > 10 µM (inactive). Besides, the GI50 is 27.7 µM (inactive) in the assay on HCT-116; > 100 µM (inactive) in the assay with CAKI-1; 90.8 µM (inactive) in the assay on NCI-H23; 22.8 µM (inactive) with BT-549; > 100 µM (inactive) with T47D; > 100 µM (inactive) in the assay with ACHN. In addition, the GI50 is > 100 µM (inactive) in the assay with OVCAR-8; > 100 µM (inactive) with HCC 2998; 48.6 µM (inactive) in the assay on NCI-H226; > 100 µM (inactive) with NCI-H522; 60.7 µM (inactive) with SNB-19; > 100 µM (inactive) in the assay on A549.
For the compound `O=c1c(Sc2c(SCSc3cnc4ccccc4c3Sc3c[nH]c4ccccc4c3=O)cnc3ccccc23)c[nH]c2ccccc12`, the GI50 in the assay with OVCAR-5 was > 100 µM (inactive); in the assay on SNB-75, > 100 µM (inactive); in the assay with SW-620 it was 44.7 µM (inactive); in the assay on UACC-62 it was 43.3 µM (inactive); in the assay with HCT-15, 96.8 µM; with SK-MEL-5, 39.6 µM (inactive). The GI50 in the assay on HCT-116, in the assay with CAKI-1, in the assay with NCI-H23, with BT-549, with T47D and in the assay with DU-145 was > 100 µM (inactive) each time. Besides, the GI50 was > 100 µM (inactive) with ACHN; > 100 µM (inactive) with OVCAR-8; > 100 µM (inactive) with HCC 2998; > 100 µM (inactive) with NCI-H522; 46.6 µM (inactive) in the assay on SNB-19; > 10 µM (inactive) in the assay on A549.
Regarding `CC(C)(C)OC(=O)CC(NC(=O)OC(C)(C)C)C(=O)Oc1ccc([N+](=O)[O-])cc1` (stereo not given), the GI50 was > 100 µM (inactive) in the assay with OVCAR-5; > 100 µM (inactive) in the assay on SNB-75; > 100 µM (inactive) with SW-620; 11.1 µM (inactive) in the assay on UACC-62; above 100 µM in the assay on HCT-15; 78.7 µM (inactive) in the assay on SK-MEL-5. In addition, the GI50 is > 100 µM (inactive) with HCT-116; > 100 µM (inactive) in the assay on CAKI-1; > 100 µM (inactive) in the assay on NCI-H23; > 100 µM (inactive) in the assay on BT-549; 89.5 µM (inactive) in the assay with T47D; > 100 µM (inactive) in the assay on DU-145. The GI50 in the assay on ACHN, in the assay on OVCAR-8, with MCF7, with NCI-H226, with NCI-H522 and with SNB-19 was > 100 µM (inactive) in each case. In addition, the GI50 with A549 is > 100 µM (inactive).
Take `COc1cc(C2c3cccc4cccc(c34)C3CCC(=O)N32)cc(O)c1O` (stereo not given): the GI50 with OVCAR-5 is > 50 µM (inactive); in the assay with SNB-75, > 50 µM (inactive); in the assay with SW-620, 28.6 µM (inactive); in the assay on UACC-62, 25.6 µM (inactive); in the assay on HCT-15 it was 23.7 µM; with HCT-116, 20.7 µM (inactive). Further, the GI50 in the assay with NCI-H23 was 27.1 µM (inactive); with BT-549, > 50 µM (inactive); in the assay on T47D it was 29.9 µM (inactive); in the assay on DU-145, > 50 µM (inactive); with ACHN, > 50 µM (inactive); in the assay with OVCAR-8 it was 27.9 µM (inactive). Also, the GI50 with MCF7 is 20.6 µM (inactive); in the assay with NCI-H226, > 50 µM (inactive); in the assay with SNB-19 it was > 50 µM (inactive); in the assay with A549, 31.2 µM (inactive).
Turning to `CC(=O)O[C@H]1CC[C@@]2(C)C(=CC[C@H]3[C@@H]4C/C(=C\c5ccc(N(C)C)cc5)[C@H](OC(C)=O)[C@@]4(C)CC[C@@H]32)C1`, the GI50 is 19.6 µM (inactive) in the assay with OVCAR-5; 15.8 µM (inactive) with SNB-75; 14.9 µM (inactive) in the assay on SW-620; 6.41 µM (inactive) in the assay with UACC-62; 6.27 µM in the assay on HCT-15; 12.5 µM (inactive) in the assay with SK-MEL-5. In addition, the GI50 in the assay with HCT-116 was 6.37 µM (inactive); with NCI-H23, 13.1 µM (inactive); in the assay with BT-549, 12 µM (inactive); in the assay with T47D, 5.56 µM (inactive); in the assay on DU-145, 23.8 µM (inactive); in the assay on ACHN it was 8.71 µM (inactive). In addition, the GI50 with OVCAR-8 is 11.3 µM (inactive); in the assay on MCF7 it was 7.62 µM (inactive); in the assay on NCI-H226 it was 12.1 µM (inactive); with SNB-19 it was 13 µM (inactive); in the assay on A549, 5.92 µM (inactive).
With `C=CCN1CCC(OC(=O)C(O)(/C=C\CC)C2CCCC2)CC1` (stereo not given), the GI50 in the assay on OVCAR-5 was > 100 µM (inactive); with SNB-75 it was > 100 µM (inactive); with UACC-62, > 100 µM (inactive); in the assay on HCT-15, above 100 µM; with SK-MEL-5 it was > 100 µM (inactive); in the assay with HCT-116, > 100 µM (inactive). Further, the GI50 with CAKI-1 was > 100 µM (inactive); in the assay with NCI-H23 it was 8.71 µM (inactive); in the assay on BT-549, > 100 µM (inactive); in the assay with T47D it was > 100 µM (inactive); in the assay on DU-145 it was > 100 µM (inactive); in the assay with ACHN, > 100 µM (inactive). Moreover, the GI50 in the assay on OVCAR-8, with MCF7, with NCI-H226, with NCI-H522, in the assay with SNB-19 and in the assay with A549 was > 100 µM (inactive) in each case.
As to `CN1CC2CC(C1)c1cccc(=O)n1C2` (stereo not given), the GI50 in the assay on OVCAR-5 was > 100 µM (inactive); in the assay with SNB-75, > 100 µM (inactive); in the assay with UACC-62, > 100 µM (inactive); with HCT-15, above 100 µM; in the assay on SK-MEL-5, > 100 µM (inactive); in the assay with HCT-116, > 100 µM (inactive). Besides, the GI50 in the assay with CAKI-1, in the assay with NCI-H23, in the assay on BT-549, in the assay on T47D, in the assay on DU-145 and with ACHN was > 100 µM (inactive) throughout. Besides, the GI50 in the assay with OVCAR-8 was > 100 µM (inactive); with HCC 2998, 0.253 µM (active); with MCF7, > 100 µM (inactive); in the assay with NCI-H522 it was > 100 µM (inactive); in the assay with SNB-19, > 100 µM (inactive); in the assay with A549, > 100 µM (inactive).

The values are drawn from ChEMBL document CHEMBL1201862, “PubChem BioAssay data set” (2004).
